Measurements taken from patent US10344032B2, “Agents for treating neurogenic inflammation and neuropathic hyperalgesia related disorders” (PÉCSI TUDOMÁNYEGYETEM, priority 2014, dated 2019).

Columns and labels:
rat = experiment: Plantar incision-induced heat allodynia (increasing temperature water bath), postoperative pain model; type: in vivo; conditions: 100 μg/kg p.o., measured 60 min later; one day after plantar incision
Method: Rats were anaesthesized with sodium-pentobarbital (Euthasol, 40 mg/kg i.p.) and a 1 cm longitudinal incision was made through the skin, fascia and muscle of the plantar aspect of the hindpaw. Significant decrease of both the thermonociceptive and mechanonociceptive thresholds (heat and mechanical allodynia) of the paw develops 1 day after this procedure.
One hundred and forty five (145) female Wistar rats (150-250 g) kept in the Animal House of the University of Pecs in a temperature-controlled room provided with a 12-hour light-dark cycle, standard rat chow and water ad libitum were used in this experimental series. […] Touch sensitivity was measured with a dynamic plantar aesthesiometer (DPA) and the thermonociceptive threshold was determined with an increasing temperature water-bath (ITWB) on the same rats (see below). […] Test compounds were administered p.o. and post-dose touch sensitivity and thermonociceptive thresholds were measured 60 min later. […]
b) The thermonociceptive threshold of the paw was determined with an increasing temperature water bath developed and validated in our laboratories in cooperation with Experimetria Ltd. (Budapest, Hungary). […] The controlling unit has a 30° C. starting temperature, heating rate and a display continuously showing the actual bath temperature measured by a thermocouple at the middle position 35 mm below the water level. […]

sst4 receptor = target: T1, sst4 receptor (Homo sapiens, UniProt P31391); experiment: Somatostatin sst4 receptor-coupled G-protein activation assay ([35S]GTPγS binding); type: biochemical; conditions: 100 nM concentration; membrane fractions of CHO cells stably expressing the sst4 receptor; percentage over specific binding in absence of agonists
T1 construct: expressed in transfected cells
From the text: [^35S]GTPγS binding assay is a functional test determining agonist-induced and receptor-mediated G-protein activation which is based on the increase in guanine nucleotide exchange at G-proteins upon agonist stimulation. The interaction of a G protein-coupled receptor (GPCR) with the G protein is the first step in the transduction of the receptor binding signal to the activation of the second-messenger systems. We measured the level of [^35S]-GTPγS bound to the α subunit of G proteins and determined the efficacy of the compounds. Compounds which elicited 200% [^35S]GTPγS binding in nanomolar concentration were considered effective agonist. The examined compounds were added into the medium in 1 nM, 10 nM, 100 nM 1 μM and 10 μM concentrations.
Membrane fractions were prepared from CHO cells stably expressing the sst4 receptor in Tris-EGTA buffer (50 mM Tris-HCl, 1 mM EGTA, 3 mM MgCl2, 100 mM NaCl, pH 7.4). These membrane fractions (˜10 μg of protein/sample) were incubated at 30° C. for 60 min in the same Tris-EGTA buffer containing [^35S]GTPγS (0.05 nM) and increasing concentrations (10^−9 to 10^−5 M) of test compounds in the presence of 30 μM GDP in a final volume of 500 μl. Non-specific binding was determined in the presence of 10 μM unlabelled GTPγS. Total binding was measured in the absence of test compounds. To calculate the specific binding, non-specific binding was subtracted from total binding. The reaction was terminated by filtrating the samples through Whatman GF/B glass fiber filters. Using 48-well Slot Blot Manifold from Cleaver Scientific filters were washed three times with ice-cold 50 mM Tris-HCl buffer (pH 7.4). After drying for 60 min at 37° C., radioactivity was measured in scintillation liquid in a Packard Tri-Carb 2800 TR scintillation counter. Test compound-induced G-protein stimulation was given as percentage over the specific [^35S]GTPγS binding observed in the absence of agonists.

[1] = Analgesic and anti-inflammatory models shown within the examples; conditions: in vivo

T1 sequence (P31391 whole entry): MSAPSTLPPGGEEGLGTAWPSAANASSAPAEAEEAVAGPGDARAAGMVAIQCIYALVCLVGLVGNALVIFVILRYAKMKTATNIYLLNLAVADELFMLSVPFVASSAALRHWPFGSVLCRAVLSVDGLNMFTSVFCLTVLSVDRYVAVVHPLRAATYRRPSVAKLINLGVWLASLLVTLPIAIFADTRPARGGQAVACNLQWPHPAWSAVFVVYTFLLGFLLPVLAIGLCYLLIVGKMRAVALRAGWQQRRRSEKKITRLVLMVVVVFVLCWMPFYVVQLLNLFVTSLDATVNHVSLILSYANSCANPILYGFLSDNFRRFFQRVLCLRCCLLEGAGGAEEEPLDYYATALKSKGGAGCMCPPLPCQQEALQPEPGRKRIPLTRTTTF

Row | melting point [°C] | [35S]GTPγS binding (G-protein activation) (sst4 receptor) [%] | Compound | effectiveness in inhibiting the decrease of the heat threshold (rat) [%] | activity in the analgesic and anti-inflammatory models [1]
1 | 186.9 to 187.7 | 210.67 | CC(=O)Nc1ccc(CCNc2ncnc3c2c(C)c(C)n3Cc2ccccc2)cc1 [Example 3, N-{4-[2-(7-Benzyl-5,6-dimethyl-7H-pyrrolo[2,3-d]pyrimidin-4-ylamino)-ethyl]-phenyl}-acetamide] | 18.2 | –
2 | – | – | COc1ccc(CCNc2ncnc3c2cc(C)n3Cc2ccc(OC)c(OC)c2)cc1OC [compound (a)] | – | totally inactive
